Data reported in patent publication US20190336615A1, “TUMOR TARGETING CONJUGATES AND METHODS OF USE THEREOF” (SILVERBACK THERAPEUTICS, INC., priority 2017, published 2019).

How the values were obtained:
PBMCs = test: TNFα production by PBMCs with antigen-expressing tumor cells (AlphaLISA); type: cell-based, human; settings: PBMCs with SKBR3 tumor cells (HER2), 24 hours, FIG. 20
Protocol: Anti-HER2-antiCD40 G1 antibody was prepared as described in Example 18. Pertuzumab was used as the HER2 G1WT antibody. Conjugates were prepared as generally described in Example 15. PBMCs were isolated from human blood as described above. Briefly, PBMCs were isolated by Ficoll gradient centrifugation, resuspended in RPMI, and plated in 96-well flat bottom microtiter plates (125,000/well). Antigen-expressing tumor cells were then added (25,000/well) along with titrating concentrations of conjugates or unconjugated parental antibodies as controls. After overnight culture, supernatants were harvested, and TNFα levels were determined by AlphaLISA.
Referring to FIG. 20, SKBR3 tumor cells were added to PBMCs, prepared as described above. SKBR3 tumor cells express the tumor antigen HER2. Anti-HER2 TLR8 benzazepine agonist conjugates, either monospecific or bispecific with CD40, and conjugated to various TLR8 benzazepine agonists were added. The immune-stimulatory compound-linkers in the conjugates used in the study are identified in TABLES 30 and 31.

monocytes = test: TNFα production by monocytes with or without tumor cells (AlphaLISA); type: cell-based, human; settings: monocytes with CEA-expressing CHO cells, FIG. 22
Protocol: Monocytes were prepared as follows: PBMCs were isolated from normal human blood using Ficoll purification, and monocytes were enriched from the PBMCs using Stem Cell Technologies Human Monocyte without CD16 Depletion Negative Selection Kits according to the manufacturer's instructions. Monocytes were then slowly frozen and stored in liquid nitrogen. Prior to assay monocytes were thawed and rested overnight at 37° C. in 5% CO2 in assay media (RPMI 1640 media supplemented with 10% FBS, […], 1 mM HEPES, 1× non-essential amino acids, 0.1 mM sodium pyruvate). The following day, monocytes were plated at 4×10^4 cell/well with or without tumor cells at 4×10^4 cell/well in 96-well flat bottom plates in assay media described above. After overnight culture, supernatants were harvested, and TNFα levels were determined by AlphaLISA.

“Pertuzumab [HER2 G1WT, reference compound]” was tested, and the TNFα production (PBMCs) was “did not stimulate TNFα production” and the TNFα production (monocytes) was “only the CEA conjugate exhibited activity”.
